The NIST ThermoML archive (doi:10.1021/je200146j)
Numbers after ± are expanded uncertainties.

Test: mn = molality of the nth substance listed, in mol/kg
Settings: 101 kPa, Liquid, m1 = 0.512; for speed of sound: Sing-around technique in a fixed-path interferometer; for mass density: Vibrating tube method

Row | SMILES | speed of sound (298.15 K) [m/s] | mass density (298.15 K) [kg/m3] | speed of sound (303.15 K) [m/s] | mass density (303.15 K) [kg/m3] | speed of sound (308.15 K) [m/s] | mass density (308.15 K) [kg/m3] | speed of sound (313.15 K) [m/s] | mass density (313.15 K) [kg/m3] | speed of sound (318.15 K) [m/s] | mass density (318.15 K) [kg/m3] | speed of sound (323.15 K) [m/s] | mass density (323.15 K) [kg/m3]
1 | O=[N+]([O-])[O-].[K+] [potassium nitrate] + O | 1517.8 ± 4.1 | 1027.98 ± 1 | 1526.8 ± 4.1 | 1026.22 ± 1 | 1536.3 ± 4.1 | 1024.1 ± 1 | 1544.4 ± 4.1 | 1022.05 ± 1 | 1551.1 ± 4.1 | 1020.2 ± 1 | 1556.6 ± 4.1 | 1018.2 ± 1
2 | O=S(=O)([O-])[O-].[K+].[K+] [potassium sulfate] + O | 1563.6 ± 4.1 | 1063.81 ± 1 | 1571.6 ± 4.1 | 1062.02 ± 1 | 1580.3 ± 4.1 | 1060.06 ± 1 | 1587.6 ± 4.1 | 1057.74 ± 1 | 1593.5 ± 4.1 | 1055.14 ± 1 | 1598.3 ± 4.1 | 1052.95 ± 1
